From PMC6299216, “Gain-of-Function Mutations in the Phospholipid Flippase MprF Confer Specific Daptomycin Resistance” (mBio, 2018)
≈ marks a conversion by molar mass, not a printed value. Ends that are not written are not given here.

Assays:
[1] = system: S. aureus ΔmprF mutant with or without functional MprF; assay: MIC, MIC test strips: mprF deletion mutant versus functional MprF; assay type: cell-based, Staphylococcus aureus; settings: daptomycin with 50 mg/liter CaCl2, three independent experiments (Fig. 4A)
Excerpt: (§1) The common laboratory strain, methicillin-susceptible S. aureus SA113 (ATCC 35556) and its mprF knockout derivative SA113ΔmprF have been described recently ([17]). Point mutations in mprF were introduced by site-directed mutagenesis in Escherichia coli using E. coli/S. aureus shuttle vector pRB474 bearing mprF via the use of a QuikChange kit (Stratagene, La Jolla, CA, USA) (see Table S3 in the supplemental material), as described recently ([20]). Mutated derivatives of mprF were cloned in pRB474mprF and transferred into strain SA113ΔmprF. Expression of the pRB474mprF variants was mediated by the use of constitutive Bacillus subtilis promoter vegII. Plasmids were maintained with 10 μg/ml chloramphenicol in all studies, with the exception of the MIC assays.
(§2) The MICs of daptomycin, bacitracin, polymyxin B, vancomycin, and oxacillin were determined with MIC test strips from Liofilchem according to the manufacturer’s advice. The MICs of friulimicin B, nisin, and gallidermin were determined by broth microdilution in Mueller-Hinton broth (MHB) in a 24-well plate under shaking conditions. Friulimicin B and daptomycin MICs were determined in the presence of 50 mg/liter CaCl2. Other MICs were determined in the presence of 50 mg/liter CaCl2 when indicated.

[2] = system: S. aureus with chromosomal deletion of MprF; settings: cited from earlier work
Excerpt: Daptomycin is the first approved drug of a new class of calcium-dependent lipopeptide antibiotics, whose entire mode of action is still not fully understood ([6], [8]). It interacts with phosphatidylglycerol (PG) and interferes with bacterial fluid membrane microdomains, which leads to inhibition of cell wall synthesis ([9]). However, it is unclear if its activity requires a specific docking molecule in the membrane ([9], [10]). How point mutations in different S. aureus proteins contribute to or cause DAP-R remains equally elusive ([6]). Several proteins involved in the synthesis, regulation, ...

[3] = system: S. aureus ΔmprF mutant expressing D71A-T345A MprF (pRB-D71A-T345A); assay: MIC, MIC test strips, flippase-inactivated MprF; assay type: cell-based, Staphylococcus aureus
Excerpt: as §1, §2

[4] = system: S. aureus ΔmprF mutant expressing E206A-T345A MprF (pRB-E206A-T345A); assay: MIC, MIC test strips, flippase-inactivated MprF; assay type: cell-based, Staphylococcus aureus
Excerpt: as §1, §2

[5] = system: S. aureus ΔmprF mutant expressing R112A-T345A MprF (pRB-R112A-T345A); assay: MIC, MIC test strips, flippase-inactivated MprF; assay type: cell-based, Staphylococcus aureus
Excerpt: as §1, §2

[6] = system: S. aureus 113 (SA113) mprF mutant expressing MprF with S295L, P314L, S337L, I420N or L826F; assay: MIC, MIC test strips (Liofilchem); assay type: cell-based, Staphylococcus aureus; settings: mutations S295L, I420N and L826F, 50 mg/liter CaCl2 (Fig. 1B)
Excerpt: as §1, §2

[7] = system: S. aureus 113 (SA113) mprF mutant expressing parental (wild-type) MprF (pRBmprF); assay type: cell-based, Staphylococcus aureus; settings: parental MprF sequence on plasmid in SA113 mprF mutant; MIC test strips; 50 mg/liter CaCl2; mean of at least five independent experiments (Fig. 1B)
Excerpt: as §1, §2

[8] = system: S. aureus 113 (SA113) mprF mutant expressing V351E-MprF (pRB-V351E); assay type: cell-based, Staphylococcus aureus; settings: V351E mutation in MprF on plasmid in SA113 mprF mutant; MIC test strips; 50 mg/liter CaCl2; mean of at least five independent experiments (Fig. 1B)
Excerpt: as §1, §2

[9] = system: S. aureus 113 (SA113) mprF mutant expressing T345A-MprF (pRB-T345A); assay type: cell-based, Staphylococcus aureus; settings: T345A mutation in MprF on plasmid in SA113 mprF mutant; MIC test strips; 50 mg/liter CaCl2; mean of at least five independent experiments (Fig. 1B)
Excerpt: as §1, §2

[10] = system: S. aureus ΔmprF mutant with or without functional MprF; assay: MIC, broth microdilution: mprF deletion mutant versus functional MprF; assay type: cell-based, Staphylococcus aureus; settings: broth microdilution in Mueller-Hinton broth, 24-well plate, shaking; friulimicin B with 50 mg/liter CaCl2; three independent experiments (Fig. 4A)
Excerpt: as §1, §2

[11] = system: S. aureus ΔmprF mutant expressing T345A-MprF; assay: MIC, broth microdilution; assay type: cell-based, Staphylococcus aureus; settings: T345A mutation; broth microdilution in MHB; 50 mg/liter CaCl2; three independent experiments (Fig. 4A)
Excerpt: as §1, §2

[12] = system: S. aureus ΔmprF mutant expressing V351E-MprF; assay: MIC, broth microdilution; assay type: cell-based, Staphylococcus aureus; settings: V351E mutation; broth microdilution in MHB; 50 mg/liter CaCl2; three independent experiments (Fig. 4A)
Excerpt: as §1, §2

Cc1onc(-c2ccccc2)c1C(=O)N[C@@H]1C(=O)N2[C@@H]1SC(C)(C)[C@@H]2C(=O)O [oxacillin]
ability to inhibit S. aureus growth (MIC) with functional MprF versus mprF deletion mutant [1]: not affected by MprF

CCCCCCCCCC(=O)N[C@@H](Cc1c[nH]c2ccccc12)C(=O)N[C@H](CC(N)=O)C(=O)N[C@@H](CC(=O)O)C(=O)N[C@@H]1C(=O)NCC(=O)N[C@@H](CCCN)C(=O)N[C@@H](CC(=O)O)C(=O)N[C@H](C)C(=O)N[C@@H](CC(=O)O)C(=O)NCC(=O)N[C@H](CO)C(=O)N[C@@H]([C@H](C)CC(=O)O)C(=O)N[C@@H](CC(=O)c2ccccc2N)C(=O)O[C@@H]1C [daptomycin]
ability to inhibit S. aureus growth (MIC) with functional MprF versus mprF deletion mutant [1]: reduced in the presence of a functional MprF protein
susceptibility after chromosomal deletion of MprF [2]: hypersusceptibility
ability of T345A to increase the MIC of daptomycin ([3]; T345A in combination with D71A, 50 mg/liter CaCl2, three independent experiments (Fig. 5B)): not able to increase the daptomycin MIC
ability of T345A to increase the MIC of daptomycin ([4]; T345A in combination with R206A (so in the source), 50 mg/liter CaCl2, three independent experiments (Fig. 5B)): not able to increase the daptomycin MIC
ability of T345A to increase the MIC of daptomycin ([5]; T345A in combination with R112A, 50 mg/liter CaCl2, three independent experiments (Fig. 5B)): only slightly increased MIC
daptomycin susceptibility compared to the parental MprF sequence [6]: did not alter daptomycin susceptibility
MIC [7]: 1 µg/mL (≈ 0.617 µM)
MIC [8]: 3 µg/mL (≈ 1.85 µM)
MIC [9]: 3 µg/mL (≈ 1.85 µM)

friulimicin B
ability to inhibit S. aureus growth (MIC) with functional MprF versus mprF deletion mutant [10]: reduced in the presence of a functional MprF protein
cross-resistance (MIC versus wild-type MprF) [11]: cross-resistance
cross-resistance (MIC versus wild-type MprF) [12]: cross-resistance

vancomycin
ability to inhibit S. aureus growth (MIC) with functional MprF versus mprF deletion mutant [1]: reduced in the presence of a functional MprF protein

gallidermin (IASKFLCTPGCAKTGSFNSYCC; also: lantibiotic: thioether rings and dehydro residues, places not given here; UniProt P21838 31-52, looked up)
ability to inhibit S. aureus growth (MIC) with functional MprF versus mprF deletion mutant [10]: reduced in the presence of a functional MprF protein

bacitracin
ability to inhibit S. aureus growth (MIC) with functional MprF versus mprF deletion mutant [1]: reduced in the presence of a functional MprF protein
MIC of bacitracin as indicator of flippase activity, compared to strains expressing a functional MprF ([3]; T345A with flippase-inactivating mutation D71A, three independent experiments (Fig. 5A)): hypersusceptible
MIC of bacitracin as indicator of flippase activity, compared to strains expressing a functional MprF ([4]; T345A with flippase-inactivating mutation E206A, three independent experiments (Fig. 5A)): hypersusceptible
MIC of bacitracin as indicator of flippase activity, compared to strains expressing a functional MprF ([5]; T345A with flippase-inactivating mutation R112A, three independent experiments (Fig. 5A)): hypersusceptible

nisin (ITSISLCTPGCKTGALMGCNMKTATCHCSIHVSK; also: lantibiotic: thioether rings and dehydro residues, places not given here; UniProt P13068 24-57, looked up)
ability to inhibit S. aureus growth (MIC) with functional MprF versus mprF deletion mutant [10]: reduced in the presence of a functional MprF protein

polymyxin B
ability to inhibit S. aureus growth (MIC) with functional MprF versus mprF deletion mutant [1]: reduced in the presence of a functional MprF protein
